From patent US4808607A, “Imidazole analogs of mevalonolactone and derivatives thereof for use in inhibiting cholesterol biosynthesis and lowering blood cholesterol level” (Sandoz Pharm. Corp., priority 1987, dated 1989) come the findings set out here.

Assay [1] has as its system 3β-hydroxysterol synthesis (cholesterol biosynthesis). The assay can be described thus: Test B. In Vivo Cholesterol Biosynthesis Inhibition Test. The settings on record: Rattus norvegicus, read-out: ED50 in Test B (dose producing 50% inhibition of 3β-hydroxysterol synthesis). Details: species or system rat (male Wistar Royal Hart). As for the experimental part: Test B. In Vivo Cholesterol Biosynthesis Inhibition Test: In vivo studies utilize male Wistar Royal Hart rats weighing 150±20 g. which have been kept for 7-10 days on an altered light cycle (6:30 A.M. - 6:30 P.M. dark) housed two per cage and fed powdered Purina Rat Chow and water ad libitum. Three hours before the diurnal maximum of cholesterol synthesis at mid-dark, the rats are administered orally the test substance (e.g., 0.001-200 mg./kg. body weight) dissolved or as a suspension in 0.5% carboxymethylcellulose in a volume of 1 ml./100 g. body weight. Controls receive vehicle alone. One hour after receiving the test substance (or the vehicle alone), the rats are injected intraperitoneally with about 25 μCi/100 g. body weight of sodium [1-^14 C]acetate 1-3 mCi/mmol. Two hours after mid-dark, blood samples are obtained under sodium hexobarbitol anesthesia, and the serum is separated by centrifugation. […] The [^14 C]digitonides are then counted by liquid scintillation spectrometry. After correcting for efficiencies, the results are calculated in nCi (nanocuries) of 3β-hydroxysterol formed per 100 ml. of serum.

The target of a further assay is T1, HMG-CoA reductase (Rattus norvegicus, UniProt P51639).
T1 construct: In the assay the microsomes are the source of the HMG-CoA reductase enzyme; from tissue; host or cells: liver microsomes of male Sprague-Dawley rats
T1 sequence (P51639 1-887): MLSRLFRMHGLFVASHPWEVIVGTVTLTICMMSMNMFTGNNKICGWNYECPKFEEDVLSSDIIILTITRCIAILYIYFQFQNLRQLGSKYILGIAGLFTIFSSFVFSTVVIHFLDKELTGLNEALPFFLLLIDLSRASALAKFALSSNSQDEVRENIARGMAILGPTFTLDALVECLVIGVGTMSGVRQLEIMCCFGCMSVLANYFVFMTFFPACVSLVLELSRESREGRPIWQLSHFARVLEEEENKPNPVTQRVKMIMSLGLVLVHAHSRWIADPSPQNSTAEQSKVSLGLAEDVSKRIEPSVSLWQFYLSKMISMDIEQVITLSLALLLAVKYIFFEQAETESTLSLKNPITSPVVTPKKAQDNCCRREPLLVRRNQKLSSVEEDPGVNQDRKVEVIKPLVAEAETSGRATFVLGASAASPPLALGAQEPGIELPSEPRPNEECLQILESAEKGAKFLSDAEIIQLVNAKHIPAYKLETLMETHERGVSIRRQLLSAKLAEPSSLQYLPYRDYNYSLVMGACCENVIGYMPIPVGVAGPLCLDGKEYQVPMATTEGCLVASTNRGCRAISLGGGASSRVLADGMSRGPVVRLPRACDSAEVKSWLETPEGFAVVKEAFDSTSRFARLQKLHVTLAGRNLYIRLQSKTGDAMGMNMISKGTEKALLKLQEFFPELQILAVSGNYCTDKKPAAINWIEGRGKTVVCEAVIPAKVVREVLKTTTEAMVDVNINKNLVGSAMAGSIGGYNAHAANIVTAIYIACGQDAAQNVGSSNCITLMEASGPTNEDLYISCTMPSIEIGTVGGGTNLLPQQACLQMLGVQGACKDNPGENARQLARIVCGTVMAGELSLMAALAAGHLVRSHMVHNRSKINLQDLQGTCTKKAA
Nature of the assay: Test A. In Vitro Microsomal Assay of HMG-CoA Reductase Inhibition. Type of assay: biochemical, rat (male Sprague-Dawley). On the procedure:
The compounds of Formula I and the pharmaceutically acceptable acid addition salts thereof are competitive inhibitors of 3-hydroxy-3-methylglutaryl coenzyme A (HMG-CoA) reductase, the rate limiting enzyme in cholesterol biosynthesis, and, therefore, they are inhibitors of cholesterol biosynthesis.
Test A. In Vitro Microsomal Assay of HMG--CoA Reductase Inhibition:
200 μl. aliquots (1.08-1.50 mg./ml.) of rat liver microsomal suspensions, freshly prepared from male SpragueDawley rats (150-225 g. body weight), in Buffer A with 10 mmol. dithiothreitol are incubated with 10 μl. of a solution of the test substance in dimethylacetamide and assayed for HMG--CoA reductase activity as described in Ackerman et al., J. Lipid Res. 18, 408-413 (1977), the concentration of the test substance in the assay system being 0.0001-2,000 μmolar. In the assay the microsomes are the source of the HMG-CoA reductase enzyme which catalyzes the reduction of HMG-CoA to mevalonate. The assay employs a chloroform extraction to separate the product, [^14 C]mevalonolactone, formed by the HMG-CoA reductase reduction of the substrate, [^14 C]HMG-CoA. [^3 H]mevalonolactone is added as an internal reference. Inhibition of HMG-CoA reductase is calculated from the decrease in specific activity ([^14 C/^3 H]mevalonate) of test groups compared to controls.
The IC50 is the concentration of the test substance in the assay system calculated or observed to produce a 50% inhibition of HMG-CoA reductase activity.

Where [2] appears, read: oral, single dose, male rats, [1-14C]acetate i.p. 1 h after dose, serum 3β-hydroxysterols.
Setting [3] is: rat liver microsomes, [14C]HMG-CoA substrate, test substance in dimethylacetamide, read-out: IC50 in Test A (50% inhibition of HMG-CoA reductase activity).

Like-named read-outs stand apart in the source and are kept apart here.

Turning to `CC(C)c1nc(-c2ccccc2)n(-c2ccc(F)cc2)c1/C=C/[C@@H](O)C[C@@H](O)CC(=O)O` (relative stereo) [Example 2, Sodium (±)-erythro-(E)-3,5-dihydroxy-7-[1'-(4"-fluorophenyl)-4'-(1"-methylethyl)-2'-phenyl-1H-imidazol-5'-yl]hept-6-enoate], the ED50 in assay [1] (setting [2]) worked out at 0.025 mg/kg. Further, at HMG-CoA reductase (setting [3]), the concentration for half-maximal inhibition (IC50) was found to be 2.6 nM.

On to `CC(C)c1nc(-c2ccccc2)n(-c2ccccc2)c1/C=C/[C@@H](O)C[C@@H](O)CC(=O)O` (relative stereo) [Example 10], for which, in assay [1] (setting [2]), the ED50 was 0.028 mg/kg. Further, the IC50 on HMG-CoA reductase (setting [3]) is 36 nM.

`CC[C@H](C)C(=O)O[C@H]1CCC=C2C=C[C@H](C)[C@H](CC[C@@H]3C[C@@H](O)CC(=O)O3)[C@H]21` [Compactin, reference compound]: the ED50 in assay [1] (setting [2]) was 3.5 mg/kg. On HMG-CoA reductase (setting [3]), the IC50 is 1010 nM.

`CC(C)c1nc(-c2ccccc2)n(-c2ccc(F)cc2)c1/C=C/[C@@H](O)C[C@@H](O)CC(=O)O` [Example 2A, Sodium (3R,5S)-(E)-3,5-dihydroxy-7-[1'-(4"-fluorophenyl)-4'-(1"-methylethyl)-2'-phenyl-1H-imidazol-5'-yl]hept-6-enoate]: the ED50 in assay [1] (setting [2]) turned out to be 0.02 mg/kg. Moreover, the concentration for half-maximal inhibition (IC50) on HMG-CoA reductase (setting [3]) was found to be 2 nM.

Consider `CCC(C)C(=O)OC1CC(C)C=C2C=CC(C)C(CCC3CC(O)CC(=O)O3)C21` (stereo not shown) [Mevinolin, reference compound], for which the ED50 in assay [1] (po, 1 h) was 0.38 mg/kg. At HMG-CoA reductase, this compound returned an IC50 of 140 nM.

Usually ED50 stands for the midpoint of the dose-response relation. The term IC50 denotes the concentration that inhibits the measured activity by half.
